Measured values from patent US8288379B2, “Thia-triaza-cyclopentazulenes” (Boehringer Ingelheim International GmbH, priority 2009, dated 2012).

Legend:
[1] = system: PC-3 cells; assay: Inhibition of proliferation: CyQuant PC-3; assay type: cell-based; conditions: 72 h; PC-3 human prostate carcinoma cells, incubated with compounds for 3 days, CyQuant NF DNA dye
Method: • GFP-4E-BP1 substrate; Invitrogen order no. PV4759 • Lanthascreen Tb-anti-p4E-BP1 (pThr46) Antibody Kit; Invitrogen order no. PV4758 • FRAP1 (mTOR) kinase; Invitrogen order no. […] Preparation of Reagents: Note: Thaw and keep mTOR, the substrate, ATP, and the antibody on ice prior to making working dilutions. Working dilutions of these components can be kept at room temperature for short periods of time the day of use. 1. Add 2 ml of 5× Assay Buffer to 8 ml water to prepare 10 ml of 1× Assay Buffer. Note: The concentration of 1× Assay Buffer is 50 mM HEPES pH 7.5, 0.01% Polysorbate 20, 1 mM EGTA, and 10 mM MnCl2. 2. Prepare Antibody/EDTA Solution by first adding 2.75 n1 of Tb-anti p4E-BP1 Antibody to 2397 n1 of LanthaScreen™ TR-FRET Dilution Buffer. Then, add 100 n1 of 0.5 M EDTA. 3. Prepare 4× Substrate/Enzyme Solution by first adding 72 n1 of GFP-4E-BP1 (22 nM) to 926 n1 of 1× Assay Buffer. Then, add 1.6 n1 of mTOR (0.45 mg/mL). 4. Prepare ATP Solution by adding 3.2 n1 of 10 mM ATP to 1997 n1 of 1× Assay Buffer. Serial Dilution of Inhibitors (16 Point Curve): Note: It is recommended that inhibitors be serially diluted in DMSO, then diluted to a 4× working concentration with 1× Assay Buffer. The below procedure describes dilution of compounds in a 96-well format prior to transfer to a 384-well format for kinase assays. This procedure calls for dilution of the compounds in 2 adjacent columns of a 96-well plate, which upon transfer to a single column of a 384-well plate with an 8-channel pipette will align the samples in order of concentration. 1. Dispense 40 n1 of DMSO to two adjacent columns of a 96 well plate per compound (e.g. columns 1 and 2). 2. Add 10 n1 of inhibitor stock (10 mM) to the first well of the first column (A1) and mix. 3. Remove 10 n1 from A1 and transfer to the adjacent well in the next column (B1) and mix. 4. Remove 10 n1 from B1 and transfer to the next well in the first column (B2) and mix. 5. Repeat this dilution pattern through well H1 and leave the last well (H2) as DMSO only. 6. Remove 4 n1 of diluted compounds and add to 96 n1 of 1× Assay Buffer in a 96-well plate making 4× compound dilutions. Kinase Reaction: 1. Add 2.5 μl of 4× compound dilutions from the first column of the 96-well plate to every other well of column 1 of a 384-well plate with an 8-channel pipette. Repeat for columns 2 and 3. 2. Add 2.5 n1 of 4× compound dilutions from the second column of the 96-well plate to the empty wells of column 1 of the 384-well plate with an 8-channel pipette. Repeat for columns 2 and 3. Note: This procedure aligns the compound dilutions in order of concentration. 3. Add 2.5 n1 of 4× Enzyme/Substrate Solution to all columns 1-6. 4. Preincubate for 30 min. at RT (shaker). 5. Add 5 n1 of ATP Solution to all wells to start reactions. 6. Shake the assay plate on a plate shaker for 30 seconds. 7. Incubate the assay plate for one hour at room temperature (20-25° C.). Stop Step and Fluorescence Detection: 1. Add 10 n1 of Antibody/EDTA Solution to each well in columns 1-9. 2. Shake the assay plate on a plate shaker for 30 seconds. 3. Incubate the assay plate for one hour at room temperature (20-25° C.). 4. Measure the GFP (FRET) and terbium (reference) emission signals on a fluorescence plate reader (e.g. Perkin Elmer Envision). Data Analysis: 1. Calculate the emission ratio for each sample by dividing the GFP (FRET) signal by the terbium (reference) signal. 2. Plot the concentration of each compound versus the emission ratio. Determine the concentration of compound required to reach 50% of the maximum signal (IC50). Determination of IC50 values can be obtained by curve fitting (sigmoidal dose response, variable slope) using Prism software from GraphPad). Inhibition of Proliferation: CyQuant PC-3 Description:
The CyQuant NF assay is based on measurement of cellular DNA content via fluorescent dye binding. Because cellular DNA content is highly regulated, it is closely proportional to cell number. […]

[2] = target: T1, FRAP1 (mTOR) kinase (Homo sapiens, UniProt P42345); assay: Inhibition of mTOR-induced p-4E-BP1 phosphorylation (TR-FRET mTOR Activity Kit; Invitrogen); assay type: biochemical; conditions: 400 nM GFP-4E-BP1 substrate, ~150 ng/mL mTOR, one hour at room temperature
T1 construct: purchased Invitrogen PV4753
How it was run: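 LanthaScreen TR-FRET: mTOR with GFP-4E-BP1 substrate in HEPES pH 7.5 buffer with 10 mM MnCl2, compound preincubated 30 min at RT, then ATP added and reacted 1 h at 20-25 °C. Stopped with EDTA plus Tb-anti-p4E-BP1 (pThr46), 1 h; GFP/Tb emission ratio over a 16-point curve, sigmoidal fit for IC50.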

T1 sequence (P42345 1360-2549 limits assumed): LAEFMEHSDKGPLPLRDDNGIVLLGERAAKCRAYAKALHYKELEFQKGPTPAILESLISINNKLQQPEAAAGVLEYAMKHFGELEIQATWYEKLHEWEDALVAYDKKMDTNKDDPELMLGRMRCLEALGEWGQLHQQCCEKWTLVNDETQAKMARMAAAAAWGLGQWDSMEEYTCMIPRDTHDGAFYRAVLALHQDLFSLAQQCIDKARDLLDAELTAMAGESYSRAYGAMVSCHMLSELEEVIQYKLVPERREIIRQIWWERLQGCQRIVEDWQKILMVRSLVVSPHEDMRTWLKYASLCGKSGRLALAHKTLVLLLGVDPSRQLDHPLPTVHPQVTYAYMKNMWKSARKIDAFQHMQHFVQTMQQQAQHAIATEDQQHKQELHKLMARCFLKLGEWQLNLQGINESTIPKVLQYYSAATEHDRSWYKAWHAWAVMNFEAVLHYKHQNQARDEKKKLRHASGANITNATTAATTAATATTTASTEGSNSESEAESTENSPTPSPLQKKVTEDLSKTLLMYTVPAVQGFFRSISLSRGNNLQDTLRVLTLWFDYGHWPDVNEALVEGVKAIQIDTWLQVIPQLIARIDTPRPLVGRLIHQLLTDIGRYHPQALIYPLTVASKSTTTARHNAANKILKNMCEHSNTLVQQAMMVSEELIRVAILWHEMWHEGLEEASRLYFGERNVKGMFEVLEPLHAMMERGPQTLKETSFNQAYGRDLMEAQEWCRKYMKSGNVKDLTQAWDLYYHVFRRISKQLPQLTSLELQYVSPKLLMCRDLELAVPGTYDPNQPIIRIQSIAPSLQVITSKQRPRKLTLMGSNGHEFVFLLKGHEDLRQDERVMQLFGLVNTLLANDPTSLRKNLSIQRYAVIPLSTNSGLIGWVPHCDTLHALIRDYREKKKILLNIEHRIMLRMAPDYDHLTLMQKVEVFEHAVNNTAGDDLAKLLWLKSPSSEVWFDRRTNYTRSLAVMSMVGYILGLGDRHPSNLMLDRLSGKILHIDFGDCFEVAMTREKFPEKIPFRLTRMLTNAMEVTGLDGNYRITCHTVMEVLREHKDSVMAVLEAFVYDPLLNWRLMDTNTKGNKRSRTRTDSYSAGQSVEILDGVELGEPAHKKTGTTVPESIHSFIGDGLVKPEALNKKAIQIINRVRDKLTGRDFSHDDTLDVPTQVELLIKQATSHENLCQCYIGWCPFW

Compound CC(=O)Nc1nc2c(s1)-c1c(c(-c3ccc(N)nc3)nn1C(C)C)CCC2 [Example B-66, N-[3-(6-Amino-pyridin-3-yl)-1-isopropyl-1,4,5,6-tetrahydro-9-thia-1,2,7-triaza-cyclopenta[e]azulen-8-yl]-acetamide] has an EC50 [1] of 0.09 µM and an IC50 [2] of 0.012 µM.

For C=CCn1nc(-c2ccc(N)nc2)c2c1-c1sc(NC(=O)N(C)C)nc1CCC2 [Example B-52], the EC50 [1] was 0.326 µM and the IC50 [2] was 0.146 µM.

In the case of CC(=O)Nc1nc2c(s1)-c1c(c(-c3c[nH]c(C)n3)nn1-c1ccccc1C)CCC2 [Example B-120, N-[3-(2-Methyl-1H-imidazol-4-yl)-1-o-tolyl-1,4,5,6-tetrahydro-9-thia-1,2,7-triaza-cyclopenta[e]azulen-8-yl]-acetamide], the EC50 [1] is reported as 0.25 µM and the IC50 [2] is reported as 0.065 µM.

CNc1ccc(-c2nn(-c3cccc(OC)c3)c3c2CCCc2nc(NC(C)=O)sc2-3)cn1 [Example B-89] showed an EC50 [1] of 0.072 µM and an IC50 [2] of 0.057 µM.

For CNc1ccc(-c2nn(-c3ccccc3F)c3c2CCCc2nc(NC(=O)N(C)C)sc2-3)cn1 [Example B-43], the EC50 [1] was 0.191 µM and the IC50 [2] was 0.141 µM.

CC(C)n1nc(-c2ccc(N)nc2)c2c1-c1sc(NC(=O)N(C)C)nc1CCC2 [Example B-29] was tested, and the EC50 [1] was 0.276 µM and the IC50 [2] was 0.2 µM.

With CC(=O)Nc1nc2c(s1)-c1c(c(-c3ccc(N)nc3)nn1-c1ccccc1C)CCC2 [Example B-61, N-[3-(6-Amino-pyridin-3-yl)-1-o-tolyl-1,4,5,6-tetrahydro-9-thia-1,2,7-triaza-cyclopenta[e]azulen-8-yl]-acetamide] the EC50 [1] was 0.069 µM and the IC50 [2] was 0.015 µM.

With C=CCn1nc(-c2ccc(NC)nc2)c2c1-c1sc(NC(=O)N(C)C)nc1CCC2 [Example B-47] the EC50 [1] was 0.703 µM and the IC50 [2] was 0.734 µM.

With CNc1ccc(-c2nn(-c3ccccc3C)c3c2CCCc2nc(NC(C)=O)sc2-3)cn1 [Example B-06, N-[3-(6-Methylamino-pyridin-3-yl)-1-o-tolyl-1,4,5,6-tetrahydro-9-thia-1,2,7-triaza-cyclopenta[e]azulen-8-yl]-acetamide] the EC50 [1] was 0.066 µM and the IC50 [2] was 0.036 µM.

CCNc1ccc(-c2nn(C3CCCOC3)c3c2CCCc2nc(NC(C)=O)sc2-3)cn1 (centres unmarked) [Example B-60] was tested, and the EC50 [1] was 0.17 µM and the IC50 [2] was 0.109 µM.

For CCNc1ccc(-c2nn(-c3ccccc3C)c3c2CCCc2nc(NC(=O)NC)sc2-3)cn1 [Example B-68], the EC50 [1] was 0.604 µM and the IC50 [2] was 0.166 µM.

CNc1ccc(-c2nn(-c3ccccc3)c3c2CCCc2nc(NC(C)=O)sc2-3)cn1 [Example B-87, N-[3-(6-Methylamino-pyridin-3-yl)-1-phenyl-1,4,5,6-tetrahydro-9-thia-1,2,7-triaza-cyclopenta[e]azulen-8-yl]-acetamide] gave an EC50 [1] of 0.021 µM and an IC50 [2] of 0.055 µM.

For CNc1ccc(-c2nn(C(C)C)c3c2CCCc2nc(NC(=O)N(C)C)sc2-3)cn1 [Example B-27], the EC50 [1] was 0.328 µM and the IC50 [2] was 0.501 µM.

For CCNc1ccc(-c2nn(-c3cccnc3)c3c2CCCc2nc(NC(C)=O)sc2-3)cn1 [Example B-127], the EC50 [1] was 0.137 µM and the IC50 [2] was 0.083 µM.

CNc1ccc(-c2nn(-c3ccccc3Cl)c3c2CCCc2nc(NC(=O)N(C)C)sc2-3)cn1 [Example B-45] gave an EC50 [1] of 0.375 µM and an IC50 [2] of 0.782 µM.

CNc1ccc(-c2nn(-c3ccncc3C)c3c2CCCc2nc(NC(C)=O)sc2-3)cn1 [Example B-85, N-[3-(6-Methylamino-pyridin-3-yl)-1-(3-methyl-pyridin-4-yl)-1,4,5,6-tetrahydro-9-thia-1,2,7-triaza-cyclopenta[e]azulen-8-yl]-acetamide] showed an EC50 [1] of 0.076 µM and an IC50 [2] of 0.024 µM.

Work on CC(C)n1nc(-c2ccc(N)nc2)c2c1-c1sc(NC(=O)CCCN(C)C)nc1CCC2 [Example B-135, N-[3-(6-Amino-pyridin-3-yl)-1-isopropyl-1,4,5,6-tetrahydro-9-thia-1,2,7-triaza-cyclopenta[e]azulen-8-yl]-4-dimethylamino-butyramide] yielded an EC50 [1] of 0.079 µM and an IC50 [2] of 0.044 µM.

Compound CN(C)CC(=O)Nc1nc2c(s1)-c1c(c(-c3ccc(N)nc3)nn1-c1ccccc1F)CCC2 [Example E-17, N-[3-(6-Amino-pyridin-3-yl)-1-(2-fluoro-phenyl)-1,4,5,6-tetrahydro-9-thia-1,2,7-triaza-cyclopenta[e]azulen-8-yl]-2-dimethylamino-acetamide] has an EC50 [1] of 0.171 µM and an IC50 [2] of 0.065 µM.

With CNc1ccc(-c2nn(C3CCCOC3)c3c2CCCc2nc(NC(C)=O)sc2-3)cn1 (centres unmarked) [Example B-83, N-[3-(6-Methylamino-pyridin-3-yl)-1-(tetrahydro-pyran-3-yl)-1,4,5,6-tetrahydro-9-thia-1,2,7-triaza-cyclopenta[e]azulen-8-yl]-acetamide] the EC50 [1] was 0.041 µM and the IC50 [2] was 0.065 µM.

C=CCn1nc(-c2ccc(C)nc2)c2c1-c1sc(NC(C)=O)nc1CCC2 [Example B-25] was tested, and the EC50 [1] was 0.437 µM and the IC50 [2] was 0.899 µM.

In the case of CCNc1ccc(-c2nn(-c3ccccc3CC)c3c2CCCc2nc(NC(C)=O)sc2-3)cn1 [Example B-79], the EC50 [1] is reported as 0.062 µM and the IC50 [2] is reported as 0.065 µM.

In the case of CC(=O)Nc1nc2c(s1)-c1c(c(-c3ccc(C)nc3)nn1-c1ccccc1C)CCC2 [Example B-11, N-[3-(6-Methyl-pyridin-3-yl)-1-o-tolyl-1,4,5,6-tetrahydro-9-thia-1,2,7-triaza-cyclopent[e]azulen-8-yl]-acetamide], the EC50 [1] is reported as 0.476 µM and the IC50 [2] is reported as 0.805 µM.

For COCCn1nc(-c2ccc(N)nc2)c2c1-c1sc(NC(C)=O)nc1CCC2 [Example B-132, N-[3-(6-Amino-pyridin-3-yl)-1-(2-methoxy-ethyl)-1,4,5,6-tetrahydro-9-thia-1,2,7-triaza-cyclopenta[e]azulen-8-yl]-acetamide], the EC50 [1] was 0.326 µM and the IC50 [2] was 0.052 µM.

CNc1ccc(-c2nn(-c3ccccc3F)c3c2CCCc2nc(NC(C)=O)sc2-3)cn1 [Example B-81, N-[1-(2-Fluoro-phenyl)-3-(6-methylamino-pyridin-3-yl)-1,4,5,6-tetrahydro-9-thia-1,2,7-triaza-cyclopenta[e]azulen-8-yl]-acetamide] was tested, and the EC50 [1] was 0.023 µM and the IC50 [2] was 0.041 µM.

In the case of NCC(=O)Nc1nc2c(s1)-c1c(c(-c3ccc(N)nc3)nn1-c1ccccc1F)CCC2 [Example B-101], the EC50 [1] is reported as 0.096 µM and the IC50 [2] is reported as 0.022 µM.

CNc1ccc(-c2nn(C(C)C)c3c2CCCc2nc(NC(C)=O)sc2-3)cn1 [Example B-05, N-[1-Isopropyl-3-(6-methylamino-pyridin-3-yl)-1,4,5,6-tetrahydro-9-thia-1,2,7-triaza-cyclopenta[e]azulen-8-yl]-acetamide] showed an EC50 [1] of 0.095 µM and an IC50 [2] of 0.024 µM.

CCn1nc(-c2ccc(NC)nc2)c2c1-c1sc(NC(=O)N(C)C)nc1CCC2 [Example B-48] gave an EC50 [1] of 0.71 µM and an IC50 [2] of 0.451 µM.

CNc1ccc(-c2nn(-c3ccccc3C)c3c2CCCc2nc(NC(=O)N(C)C)sc2-3)cn1 [Example B-46] showed an EC50 [1] of 0.447 µM and an IC50 [2] of 1.2 µM.
